Legend:
[1] = test system: brain myelination; experiment: Cross-sectional correlation of infant formula nutrient content with brain myelin content (mcDESPOT MRI, myelin water fraction); format: in vivo, human; conditions: formula-fed children up to 5 years
From the text: MRI (Magnetic Resonance Imaging): MRI brain scans of infants and children between 0 and 5 years were acquired using a white matter imaging technique. This technique provides a quantitative measure, the Myelin Water Fraction (MWF), which is a surrogate marker of myelin content in the brain. When mapped as a function of time across early childhood, myelination trajectories can be generated.
Each infant was scanned using the mcDESPOT (multicomponent Driven Equilibrium Single Pulse Observation of T1 and T2) white matter imaging technique Deoni et al. (Magn. Reson. Med. 2008, 60:1372-1387), which provides a quantitative measure of the myelin water fraction (MWF)—a measure of myelin content—at each point throughout the brain. All infants were scanned during natural (i.e. non-sedated) sleep using acoustically-muffled mcDESPOT imaging protocols. Total imaging times ranged from 19 minutes for the youngest toddlers to 24 minutes for the older 4 year-old children.
Following image alignment, non-brain signal removal, and correction for main and transmit magnetic field (B0 and B1) inhomogeneities, a three-pool signal model (comprising the myelin-associated water; intra-extra axonal water; and a non-exchanging free-water pool) was fit to the mcDESPOT data to derive voxel-wise MWF maps.
Each child's map was then non-linearly aligned to a study specific template. White matter masks, corresponding to 5 bilateral regions (frontal, temporal, occipital, parietal, and cerebellar WM) as well as the body, genu, and splenium of the corpus callosum were created from common databases, registered to the common template, and superimposed onto each child's MWF map. Mean values for each region were then determined for each child and used for subsequent developmental analysis and trajectory modeling.
From the cohort described above, children up to 5 years of age that were fed different infant formulas during infancy were included in a large correlation analysis to examine the relationship between formula nutrient composition and brain myelination. The 5 most frequently used formulas in that cohort were analyzed for their nutritional composition. A single general linear model (GLM) was constructed that modeled all quantified nutrients and child age.
Spearman rank correlations were then calculated between the nutrient content and myelin content value (adjusted for child age) at each image voxel, or point within the brain. Significance was defined as p<0.05 corrected for type 1 error using a cluster based correction approach. An association or trend was defined as p<0.15. […] To reduce the number of nutritional components in the model, we examined the inter-nutritional correlation. Using a conservative threshold of 0.9, we excluded nutritional components that were highly correlated with each other across the various formulas.

[2] = test system: neural progenitor cell (NPCs); experiment: Neurosphere counts in 96-well plates; format: cell-based, mouse; conditions: control 103
Experimental: Generation of neural progenitor cell (NPCs) libraries:
dissociation of E14 mouse neocortex
Plating Cells in 96-Well Plates for Neurosphere Counts and Diameters Only
3-4 mLs of cells were taken out of the tilted plate and add to a 15 ml conical. Some of the remaining media was used to rinse down the plate. All remaining media was drawn up and put into a 15 ml conical tube, and Spun at 130G for 5 min. All media was removed. The cells were gently resuspended in 5 mls of warm PBS, spun again. PBS was then removed and the cells were then gently resuspended in 500 μl of Accutase(Corning™ Accutase™ Cell Detachment Solution, #25058CI). The cells were then Pipetted gently with a 1000p tip to break up pellet, and then they were placed in a shaking water bath for 5-10 minutes, after which time they were swirled by hand frequently.
1 ml was taken off to count cells. The cells were spun again. Media was removed from the cell pellet. 1 mls of prepared media (no GF) was added. The cells were pipetted with a 1000 ul pipette. Cell dilutions (24,000
cells/well) in 250 μL of appropriate media were made. Cells were swirled daily and grown for 2 days.
1. The cells were fixed in the hood. For fixation and subsequent immunohistochemical analysis 100 ul of medium was removed and 100 ul 4% PFA in 1×PBS was added to fix the cells whilst counting the neurospheres by hand, then the cells were washed twice with 1×PBS for 5 min, and left in 1×PBS, wrapped in foil and left overnight at 4° C., or Dapi staining was carried out. 100 uL of PBS was removed and 100 uL
in AB staining solution for five min. Imaging was carried out using a GE Cytell imager or LSM 710, Zeiss confocal microscope and the diameters of neurospheres with ImageJ software (National Institutes of Health) was analysed.

[3] = test system: neural progenitor cell (NPCs); experiment: Monolayer culture NPC proliferation assay; format: cell-based, mouse; conditions: control 262
Experimental: Monolayer Culture NPC Proliferation Assay (Incorporation of EdU—S Phase Marker
After 24 h, it was ensured that cells had attached to the plate then the medium was carefully removed. 500 μL of compound media plus GF.was added. The cells were cultured for 3 days in appropriate media.
EDU incorporation was measured using Click-iT® EdU Alexa Fluor® 555 Imaging Kit
At the end of day 3 EdU was added to each well at 10 μM for 30 minutes prior to fixation.
For fixation and subsequent immunohistochemical analysis, the medium was removed, the cells were rinsed once with 1×PBS for 5 min, and fixed with 4% PFA in 1×PBS for 15 min at 4° C., then the cells were washed twice with 1×PBS for 5 min, left in 1×PBS, wrapped in foil and leave overnight at 4° C., or staining was proceeded with.
serum, 1×PBS, and 0.1% triton X) added to cover the bottom, the block was kept at room temp for 1 hour. The cells were stained for EDU. The cells were Incubated for 30 min at room temp, in the dark. The cells were washed with 1×PBS and stained with Dapi 1:5000 ul for 15 min. The cells were washed once with 1×PBS, then left in PBS at 4° C., or Imaged immediately using a GE Cytell imager (cell viability

[4] = high dose sphingomyelin (Dose 3: 1 μm)
[5] = low dose sphingomyelin (Dose 1: 10 nM)
[6] = med dose sphingomyelin (Dose 2: 100 nM)

Molecule	association with myelination (myelin water fraction) over time in the brain [1]	other results
CCCCC/C=C\C/C=C\C/C=C\C/C=C\CCCC(=O)O [AA, arachidonic acid]	an association with myelination (myelin water fraction) was observed over time in the brain	
[Ca+2] [calcium]	an association with myelination (myelin water fraction) was observed over time in the brain	
[Mg+2] [magnesium]	an association with myelination (myelin water fraction) was observed over time in the brain	
[P] [phosphorus]	an association with myelination (myelin water fraction) was observed over time in the brain	
[Zn] [zinc]	an association with myelination (myelin water fraction) was observed over time in the brain	
iron	an association with myelination (myelin water fraction) was observed over time in the brain	
phosphatidylcholine	an association with myelination (myelin water fraction) was observed over time in the brain	
phosphatidylinositol	an association with myelination (myelin water fraction) was observed over time in the brain	
sphingomyelin	an association with myelination (myelin water fraction) was observed over time in the brain	number of neurospheres, Average (Mean) [2, 4]: 219; number of neurospheres, Average (Mean) [2, 5]: 94; number of neurospheres, Average (Mean) [2, 6]: 121; neuronal proliferation, DAPI [3, 4]: 305; neuronal proliferation, DAPI [3, 5]: 280; neuronal proliferation, DAPI [3, 6]: 314
vitamin B12	an association with myelination (myelin water fraction) was observed over time in the brain	

— US12484608B2, “Nutritional composition and infant formula for promoting de novo myelination” (SOCIETE DES PRODUITS NESTLE S.A., priority 2015, dated 2025)
